From article PMC3815523 (ACS chemical biology, 2013)

Columns and labels:
[1] = system: full-length mSTING in 293T cells; experiment: Response of 293T cells overexpressing full-length mSTING; assay type: cell-based, mouse; conditions: 293T cells overexpressing mSTING; c-di-GMP 2 μg/ml transfected, DMXAA 500 μM
[2] = molecular target: hSTING CTD (amino acid residues 139-379) (Homo sapiens, UniProt Q86WV6); experiment: Isothermal titration calorimetry, hSTING-CTD; assay type: binding
Raw264.7 cells = experiment: IFN-β secretion in Raw264.7 cells; assay type: cell-based; conditions: Raw264.7 mouse macrophage cell line
TBK1 in Raw264.7 cells = experiment: TBK1 phospho-Ser 172 immunoblot in Raw264.7 cells; assay type: cell-based, mouse
IRF3 = experiment: IRF3-driven luciferase reporter cell line; assay type: cell-based, mouse
human leukocytes = conditions: cited from earlier work
[3] = molecular target: T1, mSTING CTD (amino acids 139-378) (Mus musculus, UniProt Q3TBT3); experiment: Isothermal titration calorimetry, mSTING-CTD; assay type: binding; conditions: ITC
T1 sequence (Q3TBT3 139-378): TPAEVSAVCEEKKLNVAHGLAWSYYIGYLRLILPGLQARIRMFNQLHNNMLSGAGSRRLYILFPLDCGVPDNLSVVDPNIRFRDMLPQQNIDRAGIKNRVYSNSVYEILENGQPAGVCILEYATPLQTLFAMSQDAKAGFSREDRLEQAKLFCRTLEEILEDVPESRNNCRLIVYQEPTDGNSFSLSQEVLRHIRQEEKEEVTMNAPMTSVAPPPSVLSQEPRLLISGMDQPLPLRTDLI

mSTING CTD = molecular target: T2, mSTING CTD (Mus musculus, UniProt Q3TBT3); experiment: Fluorescence polarization competition assay with fluorescein-labeled c-di-GMP; assay type: binding; conditions: FP
T2 sequence (Q3TBT3 139-378): T1 sequence (Q3TBT3 139-378)

Chain of hSTING CTD (amino acid residues 139-379) (Q86WV6 140-379): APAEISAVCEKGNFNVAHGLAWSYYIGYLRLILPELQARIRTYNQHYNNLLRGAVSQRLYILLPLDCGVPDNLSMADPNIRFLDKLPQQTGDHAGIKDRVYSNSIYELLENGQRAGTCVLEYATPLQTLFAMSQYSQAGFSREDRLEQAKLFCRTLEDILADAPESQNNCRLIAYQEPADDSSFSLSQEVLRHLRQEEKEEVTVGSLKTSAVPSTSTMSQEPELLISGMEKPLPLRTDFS

interaction with hSTING CTD ([2]; ITC)	affinity for the CTD of hSTING lower than for mSTING ([2]; from upper bound of detection by ITC ∼100 μM)	SMILES	responsiveness of cells [1]	IFN-β secretion (Raw264.7 cells)	TBK1 phosphorylation (phospho-Ser 172) (TBK1 in Raw264.7 cells)	IRF3 activation and nuclear translocation (IRF3)	IL-6, IL-8 and TNFα secretion (human leukocytes)	Kd ([2]; ITC, 25°C, hSTING CTD)	stoichiometry ([2]; ITC, hSTING CTD)	higher binding affinity of the mouse homolog vs hSTING ([3]; mSTING CTD vs hSTING CTD)	Kd ([3]; read-out: dissociation constant (Kd), 25°C, mSTING CTD)	competition with fluorescent c-di-GMP probe (apparent IC50) (mSTING CTD)
no interaction	at least 1000 fold	Cc1ccc2c(=O)c3cccc(CC(=O)O)c3oc2c1C [DMXAA, 5,6– dimethylxanthenone-4-acetic acid]	responsive	induces IFN-β secretion	became phosphorylated in response to DMXAA in a dose- and time-dependent manner	induces IRF3 activation and nuclear translocation	–	–	–	–	–	–
–	–	Cc1cccc2oc3c(CC(=O)O)cccc3c(=O)c12 [XAA-8Me]	–	–	–	–	increased	–	–	–	–	–
–	–	Nc1nc2c(ncn2[C@@H]2O[C@@H]3COP(=O)(O)O[C@H]4[C@@H](O)[C@H](n5cnc6c(=O)[nH]c(N)nc65)O[C@@H]4COP(=O)(O)O[C@H]3[C@H]2O)c(=O)[nH]1 [c-di-GMP, cyclic-di-GMP]	responsive	–	–	–	–	~5.2 µM	0.59	~50 fold	~0.11 µM	competed out this signal
